Source: patent US20090239840A1, “AMINO SUBSTITUTED DIARYL[a,d]CYCLOHEPTENE ANALOGS AS [sequence] AGONISTS AND METHODS OF TREATMENT OF NEUROPSYCHIATRIC DISORDERS” (ACADIA PHARMACEUTICALS, INC., priority 2003, published 2009)
Where two headings read alike, the source gives them in different places.

How the values were obtained:
muscarinic M2 receptor = target: T1, muscarinic M2 receptor (Homo sapiens, UniProt P08172); assay: R-SAT functional screen, M2; assay type: cell-based; conditions: R-SAT; for Emax: read-out: M2 eff (efficacy); for EC50: read-out: M2 pEC50 (converted)
T1 construct: expressed in transfected cells
T1 sequence (P08172 1-466): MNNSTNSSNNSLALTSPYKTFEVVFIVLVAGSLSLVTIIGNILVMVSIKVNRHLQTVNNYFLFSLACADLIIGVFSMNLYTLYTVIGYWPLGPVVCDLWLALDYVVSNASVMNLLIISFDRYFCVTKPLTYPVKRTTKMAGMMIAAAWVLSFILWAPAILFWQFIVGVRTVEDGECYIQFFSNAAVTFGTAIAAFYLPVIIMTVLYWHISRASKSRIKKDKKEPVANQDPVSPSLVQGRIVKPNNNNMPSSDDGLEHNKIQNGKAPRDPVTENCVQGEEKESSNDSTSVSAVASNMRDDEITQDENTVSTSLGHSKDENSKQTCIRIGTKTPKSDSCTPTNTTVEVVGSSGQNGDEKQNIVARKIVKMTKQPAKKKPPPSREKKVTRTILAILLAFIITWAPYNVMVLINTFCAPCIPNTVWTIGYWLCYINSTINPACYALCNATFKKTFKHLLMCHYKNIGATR
Method in brief: (§1)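 Receptor Selection and Amplification Technology (R-SAT) functional cell assay at M1, M2, M3 receptors. Values reported as efficacy (eff) and potency as pEC50.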

5-HT2A receptor = 5-HT2A receptor (Homo sapiens, UniProt P28223); assay: Receptor profile, 5-HT2A inverse agonism; assay type: cell-based; conditions: negative log of the inhibitory IC50 (inverse agonism); read-out: 5-HT2A pIEC50 (converted)
Sequence of 5-HT2A receptor (P28223 whole entry): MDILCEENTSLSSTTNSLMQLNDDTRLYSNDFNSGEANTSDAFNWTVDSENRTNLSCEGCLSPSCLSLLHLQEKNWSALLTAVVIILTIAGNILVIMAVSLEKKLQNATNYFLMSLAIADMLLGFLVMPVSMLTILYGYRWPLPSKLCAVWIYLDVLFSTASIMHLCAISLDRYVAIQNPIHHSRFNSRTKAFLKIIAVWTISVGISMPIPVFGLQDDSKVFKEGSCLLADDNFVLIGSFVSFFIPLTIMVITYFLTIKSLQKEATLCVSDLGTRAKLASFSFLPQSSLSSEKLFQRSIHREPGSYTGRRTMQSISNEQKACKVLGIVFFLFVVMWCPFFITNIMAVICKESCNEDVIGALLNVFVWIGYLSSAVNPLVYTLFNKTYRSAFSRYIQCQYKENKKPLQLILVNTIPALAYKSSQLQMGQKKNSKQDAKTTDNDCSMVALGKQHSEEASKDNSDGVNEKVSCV

M1 receptor = target: T2, M1 receptor (Homo sapiens, UniProt P11229); assay: Receptor profile, M1 agonist activity; conditions: for Emax: read-out: M1 intrinsic activity %
T2 sequence (P11229 1-460): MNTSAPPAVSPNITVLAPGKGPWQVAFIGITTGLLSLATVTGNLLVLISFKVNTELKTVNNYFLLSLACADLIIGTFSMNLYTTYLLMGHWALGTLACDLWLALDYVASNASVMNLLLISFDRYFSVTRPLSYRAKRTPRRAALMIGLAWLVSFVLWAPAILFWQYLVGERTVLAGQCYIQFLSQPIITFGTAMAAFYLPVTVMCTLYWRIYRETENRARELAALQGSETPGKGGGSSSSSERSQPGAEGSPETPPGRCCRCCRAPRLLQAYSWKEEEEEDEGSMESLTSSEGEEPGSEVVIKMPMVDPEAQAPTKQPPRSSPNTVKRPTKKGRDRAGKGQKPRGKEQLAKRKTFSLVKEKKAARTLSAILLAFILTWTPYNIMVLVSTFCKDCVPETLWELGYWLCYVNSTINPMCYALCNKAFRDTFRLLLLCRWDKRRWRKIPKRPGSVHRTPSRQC
Source text: (§3) Intrinsic activity was normalized to carbachol (M1) or pergolide (D2). For those ligands devoid of agonist activity, the values shown are pKi determined using [3H]raclopride.

D2 receptor = D2 receptor (Homo sapiens, UniProt P14416); assay: Receptor profile, D2 agonist activity; conditions: for Emax: read-out: D2 intrinsic activity %; for D2 intrinsic activity, in words: devoid of agonist activity
Sequence of D2 receptor (P14416 whole entry): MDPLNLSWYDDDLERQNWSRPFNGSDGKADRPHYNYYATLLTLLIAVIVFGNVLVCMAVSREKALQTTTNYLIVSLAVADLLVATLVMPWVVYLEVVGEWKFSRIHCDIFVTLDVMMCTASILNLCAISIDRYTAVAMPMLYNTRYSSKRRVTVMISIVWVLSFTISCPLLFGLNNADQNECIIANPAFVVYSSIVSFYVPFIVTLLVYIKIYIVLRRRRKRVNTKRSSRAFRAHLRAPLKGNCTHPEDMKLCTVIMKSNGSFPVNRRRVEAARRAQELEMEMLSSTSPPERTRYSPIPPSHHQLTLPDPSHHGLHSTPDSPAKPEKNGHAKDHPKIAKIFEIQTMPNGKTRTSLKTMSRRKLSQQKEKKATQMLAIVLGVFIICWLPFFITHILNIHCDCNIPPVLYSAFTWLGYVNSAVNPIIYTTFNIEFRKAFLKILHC
Source text: as §3

muscarinic M1 receptor = target: T3, muscarinic M1 receptor (Homo sapiens, UniProt P11229); assay: R-SAT functional screen, M1; assay type: cell-based; conditions: R-SAT; for Emax: read-out: M1 eff (efficacy); for EC50: read-out: M1 pEC50 (converted)
T3 construct: expressed in transfected cells
T3 sequence (P11229 1-460): T2 sequence (P11229 1-460)
Method in brief: as §1

muscarinic M3 receptor = target: T4, muscarinic M3 receptor (Homo sapiens, UniProt P20309); assay: R-SAT functional screen, M3; assay type: cell-based
T4 construct: expressed in transfected cells
T4 sequence (P20309 whole entry): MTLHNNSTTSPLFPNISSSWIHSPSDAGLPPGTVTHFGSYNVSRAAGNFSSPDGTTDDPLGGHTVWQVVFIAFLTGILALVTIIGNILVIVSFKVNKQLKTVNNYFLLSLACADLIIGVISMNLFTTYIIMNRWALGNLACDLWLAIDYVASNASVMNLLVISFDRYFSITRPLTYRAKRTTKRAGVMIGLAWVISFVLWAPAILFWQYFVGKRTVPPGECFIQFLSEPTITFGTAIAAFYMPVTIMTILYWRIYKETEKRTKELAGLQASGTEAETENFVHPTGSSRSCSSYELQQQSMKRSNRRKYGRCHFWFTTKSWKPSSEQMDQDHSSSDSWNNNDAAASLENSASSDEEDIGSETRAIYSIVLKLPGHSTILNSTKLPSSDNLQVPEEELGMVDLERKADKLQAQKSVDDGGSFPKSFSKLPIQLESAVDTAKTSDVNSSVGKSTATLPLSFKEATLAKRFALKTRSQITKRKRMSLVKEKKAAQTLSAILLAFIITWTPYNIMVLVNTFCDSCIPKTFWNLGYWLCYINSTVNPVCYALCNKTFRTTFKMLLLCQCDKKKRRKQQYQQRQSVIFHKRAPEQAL
Source text: The term “modulate” refers to the ability of a compound disclosed herein to alter the function of a muscarinic receptor. A modulator may activate the activity of a muscarinic receptor, may activate or inhibit the activity of a muscarinic receptor depending on the concentration of the compound exposed to the muscarinic receptor, or may inhibit the activity of a muscarinic receptor. The term “modulate” also refers to altering the function of a muscarinic receptor by increasing or decreasing the probability that a complex forms between a muscarinic receptor and a natural binding partner. A modulator may increase the probability that such a complex forms between the muscarinic receptor and the natural binding partner, may increase or decrease the probability that a complex forms between the muscarinic receptor and the natural binding partner depending on the concentration of the compound exposed to the muscarinic receptor, and or may decrease the probability that a complex forms between the muscarinic receptor and the natural binding partner. In some embodiments, modulation of the muscarinic receptor may be assessed using Receptor Selection and Amplification Technology (R-SAT) as described in U.S. Pat. No. 5,707,798, the disclosure of which is incorporated herein by reference in its entirety.
Several compounds disclosed herein were evaluated for activity at muscarinic receptors using Receptor Selection and Amplification Technology (R-SAT) as described in U.S. Pat. No. 5,707,798, the disclosure of which is incorporated herein by reference in its entirety. The efficacy (eff) and potency (expressed as pEC50) of these compounds are presented in Table 1 at M1, M2, and M3 receptors.

CYP 2C19 = CYP 2C19 (Homo sapiens, UniProt P33261); assay: CYP inhibition, 2C19; assay type: in vitro ADME
Sequence of CYP 2C19 (P33261 whole entry): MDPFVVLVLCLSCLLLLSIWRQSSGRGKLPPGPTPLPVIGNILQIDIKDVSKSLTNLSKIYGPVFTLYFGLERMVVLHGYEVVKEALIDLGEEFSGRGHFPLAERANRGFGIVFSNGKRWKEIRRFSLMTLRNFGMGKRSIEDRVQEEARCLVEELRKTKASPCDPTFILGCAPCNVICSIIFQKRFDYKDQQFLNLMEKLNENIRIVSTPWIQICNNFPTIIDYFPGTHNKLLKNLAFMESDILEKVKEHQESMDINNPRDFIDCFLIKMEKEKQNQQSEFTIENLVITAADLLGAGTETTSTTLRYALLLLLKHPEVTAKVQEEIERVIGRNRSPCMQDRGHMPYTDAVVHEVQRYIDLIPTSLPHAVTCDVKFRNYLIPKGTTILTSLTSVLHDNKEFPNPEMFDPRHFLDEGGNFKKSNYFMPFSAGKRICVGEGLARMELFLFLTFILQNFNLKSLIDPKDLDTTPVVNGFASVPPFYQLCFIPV

novel object recognition = assay: Novel object recognition (NOR) assay; assay type: in vivo; conditions: mice; for NOR - 60 minutes post training / NOR - 120 minutes post training: dose approx. ID75 in MK-801 hyperactivity assay
Experimental: Salts of the compounds were administered to mice at one hour post-training (a time-point at which animals normally behaviorally discriminate between novel and familiar objects) and two hours post-training (a time-point at which these animals normally no longer discriminate between objects). Doses were selected to correspond to the approximate ID75 value in the MK-801 hyperactivity assay.

[1] = tested on: hyperactivity induced by amphetamine; assay: Amphetamine induced hyperactivity mouse model; assay type: in vivo; conditions: mice, salts of the compounds
Experimental: (§2) Five of the compounds listed in Table 2 were tested in an in vivo assay predictive of antipsychotic activity. Salts of these compounds where administered to mice having hyperactivity induced by amphetamine or MK-801 administration. The compounds were administered both subcutaneously (sc) and orally (po).

Ames mutagenesis assay = assay type: cell-based
[2] = Human microsomal clearance; assay type: in vitro ADME; conditions: human microsomes
CYP 1A2 = target: T5, CYP 1A2 (Homo sapiens, UniProt P05177); assay: CYP inhibition, 1A2; assay type: in vitro ADME
T5 sequence (P05177 1-516): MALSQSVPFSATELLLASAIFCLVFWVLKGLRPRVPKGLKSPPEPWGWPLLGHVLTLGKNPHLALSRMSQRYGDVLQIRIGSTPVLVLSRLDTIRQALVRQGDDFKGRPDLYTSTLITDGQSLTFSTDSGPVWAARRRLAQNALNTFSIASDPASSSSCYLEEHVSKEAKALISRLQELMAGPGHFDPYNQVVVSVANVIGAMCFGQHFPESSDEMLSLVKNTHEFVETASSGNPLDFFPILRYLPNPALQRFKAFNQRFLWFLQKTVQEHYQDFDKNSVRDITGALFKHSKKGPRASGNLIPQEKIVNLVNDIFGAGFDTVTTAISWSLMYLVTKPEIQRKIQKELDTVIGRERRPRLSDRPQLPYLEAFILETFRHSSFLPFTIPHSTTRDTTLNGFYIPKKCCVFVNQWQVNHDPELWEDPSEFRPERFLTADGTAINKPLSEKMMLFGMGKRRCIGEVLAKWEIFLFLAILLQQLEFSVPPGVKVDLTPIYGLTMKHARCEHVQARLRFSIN

CYP 2D6 = CYP 2D6 (Homo sapiens, UniProt P10635); assay: CYP inhibition, 2D6; assay type: in vitro ADME
Sequence of CYP 2D6 (P10635 whole entry): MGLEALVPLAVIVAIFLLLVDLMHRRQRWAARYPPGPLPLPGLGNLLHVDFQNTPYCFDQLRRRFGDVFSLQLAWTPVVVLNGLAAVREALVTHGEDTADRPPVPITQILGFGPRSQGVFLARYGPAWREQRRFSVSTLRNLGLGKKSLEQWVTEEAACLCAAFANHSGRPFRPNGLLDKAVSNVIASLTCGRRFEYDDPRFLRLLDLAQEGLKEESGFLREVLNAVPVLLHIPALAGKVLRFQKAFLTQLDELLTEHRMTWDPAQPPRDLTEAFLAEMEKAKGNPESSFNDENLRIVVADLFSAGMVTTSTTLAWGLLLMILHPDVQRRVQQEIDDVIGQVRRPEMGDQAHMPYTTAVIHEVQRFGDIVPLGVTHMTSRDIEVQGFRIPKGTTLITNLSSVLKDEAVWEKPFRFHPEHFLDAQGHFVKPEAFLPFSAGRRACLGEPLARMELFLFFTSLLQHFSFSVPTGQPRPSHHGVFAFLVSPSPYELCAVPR

Rat microsomal clearance = assay type: in vitro ADME; conditions: rat microsomes
hERG = hERG (Homo sapiens, UniProt Q12809); assay: hERG assay
Sequence of hERG (Q12809 whole entry): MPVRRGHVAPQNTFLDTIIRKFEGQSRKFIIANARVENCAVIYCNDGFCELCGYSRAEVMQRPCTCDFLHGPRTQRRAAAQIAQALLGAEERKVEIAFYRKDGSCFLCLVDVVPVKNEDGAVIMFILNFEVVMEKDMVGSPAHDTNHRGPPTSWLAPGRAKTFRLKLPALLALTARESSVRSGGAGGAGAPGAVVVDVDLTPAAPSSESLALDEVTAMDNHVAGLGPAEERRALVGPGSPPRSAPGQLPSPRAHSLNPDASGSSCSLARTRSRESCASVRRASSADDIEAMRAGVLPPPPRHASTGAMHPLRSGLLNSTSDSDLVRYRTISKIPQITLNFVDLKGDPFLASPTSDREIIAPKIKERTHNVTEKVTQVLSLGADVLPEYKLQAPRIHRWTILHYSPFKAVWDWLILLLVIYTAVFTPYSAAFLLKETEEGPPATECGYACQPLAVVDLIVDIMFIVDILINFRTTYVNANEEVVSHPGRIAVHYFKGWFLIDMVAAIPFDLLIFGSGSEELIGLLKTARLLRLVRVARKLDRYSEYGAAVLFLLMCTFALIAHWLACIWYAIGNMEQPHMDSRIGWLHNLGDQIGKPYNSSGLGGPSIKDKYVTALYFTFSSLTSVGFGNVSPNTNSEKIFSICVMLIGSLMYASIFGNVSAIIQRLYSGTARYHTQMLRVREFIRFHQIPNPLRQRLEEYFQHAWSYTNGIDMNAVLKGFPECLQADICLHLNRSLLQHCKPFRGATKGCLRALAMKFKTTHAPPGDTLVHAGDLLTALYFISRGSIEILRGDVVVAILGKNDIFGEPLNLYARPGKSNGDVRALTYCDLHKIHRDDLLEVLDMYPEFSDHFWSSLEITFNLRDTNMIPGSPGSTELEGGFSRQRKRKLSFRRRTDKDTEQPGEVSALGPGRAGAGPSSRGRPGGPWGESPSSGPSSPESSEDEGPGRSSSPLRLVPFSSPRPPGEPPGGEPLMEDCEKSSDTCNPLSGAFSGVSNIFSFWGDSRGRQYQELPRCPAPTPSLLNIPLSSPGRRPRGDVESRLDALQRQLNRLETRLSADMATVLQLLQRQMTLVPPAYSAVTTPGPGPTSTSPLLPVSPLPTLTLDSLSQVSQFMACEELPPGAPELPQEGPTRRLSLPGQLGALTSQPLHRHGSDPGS

CYP 3A4 = CYP 3A4 (Homo sapiens, UniProt P08684); assay: biochemical
Sequence of CYP 3A4 (P08684 whole entry): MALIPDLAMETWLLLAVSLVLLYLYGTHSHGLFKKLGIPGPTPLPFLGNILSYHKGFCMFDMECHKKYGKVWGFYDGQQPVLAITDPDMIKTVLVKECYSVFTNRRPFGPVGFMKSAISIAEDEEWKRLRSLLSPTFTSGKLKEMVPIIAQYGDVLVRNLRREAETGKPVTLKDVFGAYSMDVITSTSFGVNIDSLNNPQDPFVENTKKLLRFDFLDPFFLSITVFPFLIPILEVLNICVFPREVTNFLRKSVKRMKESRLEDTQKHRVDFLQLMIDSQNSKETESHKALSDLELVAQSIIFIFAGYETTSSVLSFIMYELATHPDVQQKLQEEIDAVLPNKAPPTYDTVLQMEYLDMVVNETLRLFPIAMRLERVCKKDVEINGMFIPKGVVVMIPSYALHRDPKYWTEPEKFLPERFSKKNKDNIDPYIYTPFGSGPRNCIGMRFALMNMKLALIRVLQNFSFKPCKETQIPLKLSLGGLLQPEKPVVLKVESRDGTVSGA
Experimental: The compounds listed in Table 4 were profiled in a panel of in vitro assays for assessment of cardiovascular (hERG), drug-drug interaction (CYP inhibition), and mutagenic (Ames) liability. Microsomal stability was also determined by measuring both rat and human microsomal clearance.

CYP 2C9 = CYP 2C9 (Homo sapiens, UniProt P11712); assay: CYP inhibition, 2C9; assay type: in vitro ADME
Sequence of CYP 2C9 (P11712 whole entry): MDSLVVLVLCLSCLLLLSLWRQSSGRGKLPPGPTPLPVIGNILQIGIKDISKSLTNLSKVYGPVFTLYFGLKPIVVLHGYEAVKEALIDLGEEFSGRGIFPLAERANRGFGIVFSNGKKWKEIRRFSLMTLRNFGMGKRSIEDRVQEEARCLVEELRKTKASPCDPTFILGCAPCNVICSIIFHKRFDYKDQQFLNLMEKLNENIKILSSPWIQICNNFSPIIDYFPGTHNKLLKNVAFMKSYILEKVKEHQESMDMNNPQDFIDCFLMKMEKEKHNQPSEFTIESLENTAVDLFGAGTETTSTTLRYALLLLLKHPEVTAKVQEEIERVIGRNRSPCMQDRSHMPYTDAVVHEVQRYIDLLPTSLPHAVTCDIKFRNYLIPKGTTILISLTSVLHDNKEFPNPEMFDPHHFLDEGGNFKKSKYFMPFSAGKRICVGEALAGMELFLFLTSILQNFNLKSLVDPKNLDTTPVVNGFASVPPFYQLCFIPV

[3] = tested on: hyperactivity induced by MK-801; assay: MK-801 induced hyperactivity mouse model; assay type: in vivo; conditions: mice, salts of the compounds
Experimental: as §2

| Compound | Emax (muscarinic M2 receptor) [%] | EC50 (muscarinic M2 receptor) [nM] | IC50 (5-HT2A receptor) [nM] | EC50 (M1 receptor) [nM] | Emax (M1 receptor) [%] | EC50 (D2 receptor) [nM] | Emax (D2 receptor) [%] | NOR Interpretation (novel object recognition) | NOR - 60 minutes post training (novel object recognition) | NOR - 120 minutes post training (novel object recognition) | Amphetamine model (ID50 mg/kg po) [1] [mg/kg] | Amphetamine model (ID50 mg/kg sc) [1] [mg/kg] | MK-801 model (ID50 mg/kg po) [3] [mg/kg] | MK-801 model (ID50 mg/kg sc) [3] [mg/kg] | further results |
| --- | --- | --- | --- | --- | --- | --- | --- | --- | --- | --- | --- | --- | --- | --- | --- |
| Brc1ccc2c(c1)N=C(N1CCNCC1)c1ccccc1O2 [8-Bromo-11-(piperazin-1-yl)-dibenzo[b,f][1,4]oxazepine] | 70 | 1260 | 25.1 | 398 | 36 | 50.1 | 34 |  |  |  |  |  |  |  |  |
| CC1CN(C2=Nc3cc(Cl)ccc3Nc3ccccc32)CCN1 (stereo not drawn) [8-Chloro-11-(3-methyl-piperazin-1-yl)-5H-dibenzo[b,e][1,4]diazepine] | 159 | 1580 |  |  |  |  |  |  |  |  |  |  |  |  | Emax (muscarinic M1 receptor): 28%; EC50 (muscarinic M1 receptor): 100 nM; M3 eff (efficacy) (muscarinic M3 receptor): 19 |
| Clc1ccc2c(c1)N=C(N1CCNCC1)c1ccccc1C2 [3-Chloro-6-piperazin-1-yl-11H-dibenzo[b,e]azepine] | 113 | 1260 | 31.6 | 100 | 62 | 12.6 | 33 | no effect | retained | not retained | 2.8 | 3.6 | 1.6 | 0.7 | IC50 (CYP 2C19): > 10000 nM; Ames (Ames mutagenesis assay; to 10 μM (cytotoxicity precluded evaluation of all concentrations)): Neg.; microsomal CLint [2]: 21 µL/min/mg; IC50 (CYP 1A2): > 10000 nM; IC50 (CYP 2D6): > 10000 nM; microsomal CLint (Rat microsomal clearance): 383 µL/min/mg; IC50 (hERG): 1200 nM; IC50 (CYP 3A4): ~4000 nM; IC50 (CYP 2C9): > 10000 nM |
| Cc1cccc2c1Oc1ccc(Cl)cc1N=C2N1CCNCC1 [8-Chloro-4-methyl-11-(piperazin-1-yl)-dibenzo[b,f][1,4]oxazepine] | 71 | 631 | 31.6 | 200 | 71 |  |  | procognitive | retained | retained | >10 | 3.4 | 1.9 | 0.5 | IC50 (CYP 2C19): > 10000 nM; Ames (Ames mutagenesis assay; to 5 μM (cytotoxicity precluded evaluation of all concentrations)): Neg.; microsomal CLint [2]: 16 µL/min/mg; IC50 (CYP 1A2): 1800 nM; IC50 (CYP 2D6): > 10000 nM; microsomal CLint (Rat microsomal clearance): 27 µL/min/mg; IC50 (hERG): 2000 nM; IC50 (CYP 3A4): 1800 nM; D2 intrinsic activity, in words (D2 receptor): antagonist; IC50 (CYP 2C9): > 10000 nM |
| Fc1ccc2c(c1)N=C(N1CCNCC1)c1ccccc1O2 [8-Fluoro-11-(piperazin-1-yl)-dibenzo[b,f][1,4]oxazepine] | 48 | 2510 | 501 | 316 | 39 | 15.8 | 73 |  |  |  |  |  |  |  |  |
| Cc1cccc2c1Oc1ccc(C(F)(F)F)cc1N=C2N1CCNCC1 [4-Methyl-11-(piperazin-1-yl)-8-trifluoromethyl-dibenzo[b,f][1,4]oxazepine] | 75 | 794 | 2510 | 316 | 52 |  |  |  |  |  |  |  |  | >10 | D2 intrinsic activity, in words (D2 receptor): antagonist |
| Clc1ccc2c(c1)N=C(N1CCNCC1)c1ccccc1N2 [N-desmethylclozapine, reference compound] |  |  |  |  |  |  |  | no effect | retained | not retained | >10 | 5.2 | 1.5 | 3.5 | Ames (Ames mutagenesis assay): Neg. |
| Brc1ccc2c(c1)N=C(N1CCNCC1)c1ccccc1N2 [8-Bromo-11-(piperazin-1-yl)-5H-dibenzo[b,e][1,4]diazepine] | 121 | 501 |  |  |  |  |  |  |  |  |  |  |  |  | Emax (muscarinic M1 receptor): 63%; EC50 (muscarinic M1 receptor): 63.1 nM; M3 eff (efficacy) (muscarinic M3 receptor): 13 |
